Results on one compound are retold here after patent US12263066B2, “Apparatuses, systems and methods for perforating and aspirating inner ear” (priority 2018, dated 2025).

A short description of the series: Valia-Chien diffusion cell, trans-membrane diffusion of RhoB. The format is in vitro ADME. From the text: A Valia-Chien cell apparatus separated by an artificial barrier membrane was used to compare the in vitro drug delivery kinetics of the small molecule Rhodamine B delivered via P407 and saline solution, both with and without perforations. The applied methods for measuring trans-membrane diffusion were adapted from the American Association of Pharmaceutical Scientists as well as the Federal Drug Administration recommendations for in vitro percutaneous absorption rate studies (EPA, Recommended Protocol For In Vitro Percutaneous Absorption Rate Studies, Federal Register Notices, 61(65):14773-14778, 1996. Agency Docket: OPPTS-42186A.)
P407 powder (Spectrum Chemical, Gardena, CA) was mixed with demineralized water and RhoB to create a 0.1 mM RhoB solution in 18% P407 by weight. The resulting mixture was stirred at room temperature and kept overnight in a refrigerator at 3 to 4° C. to facilitate dissolution of the P407 powder. At the chosen P407 concentration, the mixture transitioned into gel upon placement within the room-temperature testing apparatus.
Diffusion of RhoB through an artificial membrane barrier was performed using 9 mm clear unjacketed Valia-Chien diffusion cells (PermeGear Inc., Hellertown, PA) with 5 mL volumes and flat-ground joints. […] The Valia-Chien diffusion cells 800 were arranged horizontally, mitigating the effects of gravity on particle movement and allowing for active stirring of both the donor 810 and receptor compartments 820 by magnetic mini-stirrers 840 (HI 190M-1, Hanna Instruments, Woonsocket, RI). A 3D-printed adapter 850 was used as a conduit between the chambers 810, 820.
The donor chamber 810 was filled with 5.0 mL volumes of: (A) 0.1 mM RhoB in PBS or (B) 0.1 mM RhoB in 18% P407. An additional sample of donor solution was reserved for the calibration of fluorescence detection, as detailed below. Active stirring of the donor chamber 810 was performed for experiments utilizing PBS, but not those utilizing gelified P407. Initial filling of the donor chamber marked time zero for each experiment.
The receptor chamber 820 was filled with 5.0 mL of PBS prepared by dissolving 9.6 g of Dulbecco's Phosphate Buffered Saline powder (Sigma-Aldrich) in 1.0 L deionized water. An Eppendorf micropipette was used to withdraw 75 μL of fluid from the receptor chamber every 15 minutes, from 0 min to 165 min, for a total of 12 samples. The collected samples were placed in individual wells of a 96-well plate for further analysis. The withdrawn solution was replaced with 75 μL of PBS to prevent advection of fluid within the system. […] Active stirring of the receptor chamber 820 was performed for all experiments.
Whatman™ Grade 2 Qualitative Filter Paper with diameter 5.5 cm, thickness 190 μm and pore size 8.0 μm (Whatman Limited, England) was used as an artificial membrane 830 barrier separating the donor and receptor chambers. […] Using an artificial barrier controlled for pore size as well as membrane thickness. The filter paper was cut to fit a custom 3D-printed diffusion cell adapter, which was circumferentially sealed with general-purpose epoxy. Teflon tape was used to prevent leakage between the 3D-printed adapter and the joint, which were secured with a standard Valia-Chien cell clamp. The filter paper was equilibrated in PBS solution for 30 min prior to any contact with donor substance. […]

Structures are written as SMILES.

With `CCN(CC)c1ccc2c(-c3ccccc3C(=O)O)c3ccc(=[N+](CC)CC)cc-3oc2c1.[Cl-]` [RhoB, Rhodamine B], the permeance (RhoB in P407, membrane with one 200 μm perforation) is 3.0×10^−7 m s^−1; the permeance (RhoB in P407, unperforated artificial membrane) was 2.2×10^−7 m s^−1; the permeance (RhoB in PBS, unperforated artificial membrane) is recorded as 3.04×10^−6 m s^−1. Besides, under “after the initial burst release”, the “diffusion rate in P407 relative to saline (times lower)” value is on record as “more than 10 times”. For the same compound, the “increase in measured permeance” value (saline as solvent, membranes with up to four 100 μm perforations vs unperforated) was 1.5 fold.
